By Ki is commonly meant the dissociation constant of the complex between target and ligand, obtained from inhibition or displacement.

The experiment concerns the target T1, LTD4 receptor (Cavia porcellus, UniProt Q2NNR5).
T1 construct: Guinea pig lung membranes, containing the LTD4 receptors, are purified; from tissue; host or cells: guinea-pig lung membranes
T1 sequence (Q2NNR5 1-340): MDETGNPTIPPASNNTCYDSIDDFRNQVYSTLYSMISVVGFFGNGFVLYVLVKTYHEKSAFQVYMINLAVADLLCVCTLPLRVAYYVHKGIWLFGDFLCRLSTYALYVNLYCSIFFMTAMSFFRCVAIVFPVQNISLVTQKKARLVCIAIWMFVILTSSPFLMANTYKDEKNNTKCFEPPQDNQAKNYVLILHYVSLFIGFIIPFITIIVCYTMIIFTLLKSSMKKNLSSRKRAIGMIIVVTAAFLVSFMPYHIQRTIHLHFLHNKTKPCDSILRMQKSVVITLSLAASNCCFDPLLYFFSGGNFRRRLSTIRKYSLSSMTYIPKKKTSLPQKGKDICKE
The experiment in a line: [^3 H]-LTD4 Receptor Binding Inhibition Test in Guinea-pig Lung Membranes. As to conditions: 0.5 nM [^3 H]-LTD4, 30 min at 25° C., pH 7.4, Cheng-Prusoff. As for the experimental part: The antagonistic activity on LTD4 of the compounds of the present invention is determined by means of an inhibition test of the [^3 H]-LTD4 receptor binding in guinea-pig lung membranes.
[^3 H]-LTD4 Receptor Binding Inhibition Test in Guinea-pig Lung Membranes
Guinea pig lung membranes, containing the LTD4 receptors, are purified following the method described by Mong and col. (Mong et al., Prostaglandins, 1984, 28. 805). These purified membranes (150 μg/ml) are added to an incubation mixture containing 10 mM of PIPES buffer (piperazine-N,N'-bis(2-ethanesulfonic acid) (pH 7.4), 10 mM CaCl2, 10 mM MgCl2, 2 mM cysteine, 2 mM glycine, 0.5 nM [^3 H]-LTD4 (4700-6400 GBq/mmol) and different concentrations of the product under test in a final volume of 310 μl. The reaction mixture is incubated for 30 minutes at 25° C.
The radioligand bound to the membranes is separated from the free one by dilution with 4 ml washing buffer (10 mM Tris-HCl (pH 7.4) and 100 mM NaCl) at 0° C. and filtration with Whatman GF/B filters, by means of a Brandel Cell Harvester. The filters are washed 4 times with a total volume of 16 ml of washing buffer at 0° C. The radioactivity present in the filters is determined by liquid scintillation.
The specific binding is defined as the difference between the total binding of [^3 H]-LTD4 and the non-specific binding determined in the presence of 1 μM LTD4. The data obtained in the competition tests are analyzed by a computational program, which determines the inhibition constant of each compound (Ki) by means of the Cheng-Prusoff equation (Cheng et al., Biochem. Pharmacol., 1973, 22, 3094).
wherein IC50 is the concentration of compound which displaces a 50% of the bound radioligand, [L] is the concentration of [^3 H]LTD4 free in the test and Kd is the dissociation constant of the LTD4 obtained in an independent way by means of Scatchard analysis.
On to `O=C(Nc1cccc2c(=O)cc(C(=O)O)oc12)c1ccc2c(c1)CCC(COCc1ccccc1)O2` (centres unmarked) [Example 1, 8-[2-(Benzyloxymethyl)chromane-6-carboxamido]-4-oxo-4H-1-benzopyran-2-carboxylic acid], for which the Ki was 145 ± 34 nM. Next, `O=C(Nc1cccc2c(=O)cc(-c3nnn[nH]3)oc12)c1ccc2c(c1)CCC(COCc1ccccc1)O2` (centres unmarked) [Example 2, N-[4-Oxo-2-(1H-5-tetrazolyl)-4H-1-benzopyran-8-yl]-2-(benzyloxymethyl)chromane-6-carboxamide]: 12 ± 4 nM; `O=C(Nc1cccc2c(=O)cc(C(=O)O)oc12)c1ccc2c(c1)CCC(CCCc1ccccc1)O2` (centres unmarked) [Example 3, 8-[2-(3-Phenylpropyl)chromane-6-carboxamido]-4-oxo-4H-1-benzopyran-2-carboxylic acid]: 5.6 ± 0.5 nM; `O=C(Nc1cccc2c(=O)cc(-c3nnn[nH]3)oc12)c1ccc2c(c1)CCC(CCCc1ccccc1)O2` (centres unmarked) [Example 4, N-[4-Oxo-2-(1H-5-tetrazolyl)-4H-1-benzopyran-8-yl]-2-(3-phenylpropyl)chromane-6-carboxamide]: 2.3 ± 0.2 nM. In turn, `O=C(Nc1cccc2c(=O)cc(C(=O)O)oc12)c1ccc2oc(COCc3ccccc3)cc2c1` [Example 5, 8-[2-(Benzyloxymethyl)benzofuran-5-carboxamido]-4-oxo-4H-1-benzopyran-2-carboxylic acid] had a Ki of 24 ± 3 nM. Next, `O=C(Nc1cccc2c(=O)cc(C(=O)O)oc12)c1ccc2c(c1)CC(COCc1ccccc1)O2` (centres unmarked) [Example 6, 8-(2-Benzyloxymethyl-2,3-dihydrobenzofuran-5-carboxamido)-4-oxo-4H-1-benzopyran-2-carboxylic acid]: 6 ± 2.1 nM; `O=C(Nc1cccc2c(=O)cc(-c3nnn[nH]3)oc12)c1ccc2c(c1)CC(COCc1ccccc1)O2` (centres unmarked) [Example 7, N-[4-Oxo-2-(1H-5-tetrazolyl)-4H-1-benzopyran-8-yl]-2-benzyloxymethyl-2,3-dihydrobenzofuran-5-carboxamide]: 1.88 ± 0.2 nM; `O=C(Nc1cccc2c(=O)cc(C(=O)O)oc12)c1ccc2c(c1)CC(CCCc1ccccc1)O2` (centres unmarked) [Example 8, 8-[2-(3-Phenylpropyl)-2,3-dihydrobenzofuran-5-carboxamido]-4-oxo-4H-1-benzopyran-2-carboxylic acid]: 1.73 ± 0.2 nM. With `O=C(Nc1cccc2c(=O)cc(-c3nnn[nH]3)oc12)c1ccc2c(c1)CC(CCCc1ccccc1)O2` (centres unmarked) [Example 9, N-[4-Oxo-2-(1H-5-tetrazolyl)-4H-1-benzopyran-8-yl]-2-(3-phenylpropyl)-2,3-dihydrobenzofuran-5-carboxamide] the figure was 1.1 ± 0.2 nM. With `O=C(Nc1cccc2c(=O)cc(C(=O)O)oc12)c1ccc2c(c1)CC(CSCc1ccccc1)O2` (centres unmarked) [Example 10, 8-(2-Benzylthiomethyl-2,3-dihydrobenzofuran-5-carboxamido)-4-oxo-4H-1-benzopyran-2-carboxylic acid] the figure was 9 ± 0.8 nM. `O=C(Nc1cccc2c(=O)cc(C(=O)O)oc12)c1ccc2c(c1)CC(COCc1ccc(F)cc1)O2` (centres unmarked) [Example 11, 8-[2-(4'-Fluorobenzyloxymethyl)-2,3-dihydrobenzofuran-5-carboxamido]-4-oxo-4H-1-benzopyran-2-carboxylic acid] had a Ki of 1.9 ± 0.04 nM. With `O=C(Nc1cccc2c(=O)cc(-c3nnn[nH]3)oc12)c1ccc2c(c1)CC(COCc1ccc(F)cc1)O2` (centres unmarked) [Example 12, N-[4-Oxo-2-(1H-5-tetrazolyl)-4H-1-benzopyran-8-yl]-2-(4'-fluorobenzyloxymethyl)-2,3-dihydrobenzofuran-5-carboxamide] the figure was 0.39 ± 0.1 nM; with `O=C(Nc1cccc2c(=O)cc(C(=O)O)oc12)c1cc(Cl)c2c(c1)CC(CCCc1ccccc1)O2` (centres unmarked) [Example 13, 8-[7-chloro-2-(3-phenylpropyl)-2,3-dihydrobenzofuran-5-carboxamido]-4-oxo-4H-1-benzopyran-2-carboxylic acid], 9.3 ± 3 nM. As to `O=C(Nc1cc(F)cc2c(=O)cc(C(=O)O)oc12)c1ccc2c(c1)CC(CCCc1ccccc1)O2` (centres unmarked) [Example 14, 8-[2-(3-Phenylpropyl)-2,3-dihydrobenzofuran-5-carboxamido]-6-fluoro-4-oxo-4H-1-benzopyran-2-carboxylic acid], the affinity corresponds to a Ki of 4.2 ± 1.1 nM.

`O=C(O)c1cc(=O)c2cccc(NC(=O)c3ccc4c(c3Cl)CC(CCCc3ccccc3)O4)c2o1` (centres unmarked) [Example 15, 8-[4-Chloro-2-(3-phenylpropyl)-2,3-dihydrobenzofuran-5-carboxamido]-4-oxo-4H-1-benzopyran-2-carboxylic acid] gave an inhibitory constant (Ki) of 102 ± 48 nM. In turn, `O=C(O)c1cc(=O)c2cccc(NC(=O)c3cc4c(cc3Cl)OC(CCCc3ccccc3)C4)c2o1` (centres unmarked) [Example 16, 8-[6-Chloro-2-(3-phenylpropyl)-2,3-dihydrobenzofuran-5-carboxamido]-4-oxo-4H-1-benzopyran-2-carboxylic acid] had a Ki of 169 ± 24 nM.

`Cc1cn(CCCCc2ccccc2)c2ccc(C(=O)Nc3cccc4c(=O)cc(-c5nnn[nH]5)oc34)cc12` [Example 17, N-[4-Oxo-2-(1H-5-tetrazolyl)-4H-1-benzopyran-8-yl]-1-(4-phenylbutyl)-3-methylindole-5-carboxamide] showed an inhibitory constant (Ki) of 1200 ± 440 nM. With `O=C(O)c1cc(=O)c2cccc(OCc3ccc(OCCCCc4ccccc4)cc3)c2o1` [Example 18, 8-[[4-(4-phenylbutoxy)phenyl]methyloxy]-4-oxo-4H-1-benzopyran-2-carboxylic acid] the figure was 174 ± 43 nM; with `O=C(O)c1cc(=O)c2cccc(NS(=O)(=O)c3ccc(OCCCCc4ccccc4)cc3)c2o1` [Example 19, 8-[[4-(4-Phenylbutoxy)phenyl]sulfonylamino]-4-oxo-4H-1-benzopyran-2-carboxylic acid], 6 ± 1 nM; with `O=C(O)c1cc(=O)c2cccc(/C=C/c3ccc(OCCCCc4ccccc4)cc3)c2o1` [Example 20, 4-oxo-8-[(E)-2-[4-(4-phenylbutoxy)phenyl]ethen-1-yl]-4H-1-benzopyran-2-carboxylic acid], 6.2 ± 1.3 nM. Next, `O=c1cc(-c2nnn[nH]2)oc2c(/C=C/c3ccc(OCCCCc4ccccc4)cc3)cccc12` [Example 21, 8-[(E)-2-[4-(4-Phenylbutoxy)phenyl]ethen-1-yl]-4-oxo-2-(5-1H-tetrazolyl]-4H-1-benzopyran]: 0.5 ± 0.2 nM; `O=C(O)c1cc(=O)c2cccc(/C=C/c3ccc(OCCCCc4ccc(F)cc4)cc3)c2o1` [Example 22, 8-[(E)-2-[4-[4-(4-Fluorophenyl)butoxy]phenyl]-ethen-1-yl]-4-oxo-4H-1-benzopyran-2-carboxylic acid]: 6 ± 3 nM; `O=c1cc(-c2nnn[nH]2)oc2c(/C=C/c3ccc(OCCCCc4ccc(F)cc4)cc3)cccc12` [Example 23, 8-[(E)-2-[4-[4-(4-Fluorophenyl)butoxy]phenyl]ethen-1-yl]-4-oxo-2-(5-1H-tetrazolyl)-4H-1-benzopyran]: 0.39 ± 0.1 nM. With `O=C(O)c1cc(=O)c2cccc(/C=C/c3ccc(OCCCCc4ccccc4)cc3F)c2o1` [Example 24, 8-[(E)-2-[4-(4-Phenylbutoxy)-2-fluorophenyl]ethen-1-yl]-4-oxo-4H-1-benzopyran-2-carboxylic acid] the figure was 22.3 ± 0.1 nM; with `O=C(O)c1cc(=O)c2cccc(/C=C/c3ccc4c(c3)CC(COCc3ccc(F)cc3)O4)c2o1` (centres unmarked) [Example 25, 8-[(E)-2-[2-(4'-Fluorobenzyloxymethyl)-2,3-dihydrobenzofuran-5-yl]ethen-1-yl]-4-oxo-4H-1-benzopyran-2-carboxylic acid], 1.25 ± 0.3 nM; with `O=c1cc(-c2nnn[nH]2)oc2c(/C=C/c3ccc4c(c3)CC(COCc3ccc(F)cc3)O4)cccc12` (centres unmarked) [Example 26, 8-[(E)-2-[2-(4'-fluorobenzyloxymethyl)-2,3-dihydrobenzofuran-5-yl]ethen-1-yl]-4-oxo-2-(5-1H-tetrazolyl)-4H-1-benzopyran], 0.46 ± 0.1 nM.

(Values after patent US5990142A, “Benzopyran derivatives having leukotriene-antagonistic action” (Laboratorios Menarini S.A., priority 1996, dated 1999).)
